From US9420813B2, “Sweetener” (AJINOMOTO CO., INC., priority 2007, dated 2016) come the findings set out here.

*1 amine or outer side, *2 acyl side, *3 side chain or, on linkers, in order; H or OH if unused. Where no end group is shown, it is not given here. [ ]: non-standard residue; d: D form. γGlu = O=C(O)[C@H](CCC(=O)[*:2])N[*:1]; Abu = CC[C@H](N)C(=O)O

For this experiment, the target named is T1, human calcium receptor (Homo sapiens, UniProt P41180).
T1 construct: expressed in transfected cells; host or cells: Xenopus laevis oocytes injected with receptor cRNA; the gene was amplified by PCR from human kidney cDNA (Clontech) and cloned in pBR322
T1 sequence (P41180 20-1078): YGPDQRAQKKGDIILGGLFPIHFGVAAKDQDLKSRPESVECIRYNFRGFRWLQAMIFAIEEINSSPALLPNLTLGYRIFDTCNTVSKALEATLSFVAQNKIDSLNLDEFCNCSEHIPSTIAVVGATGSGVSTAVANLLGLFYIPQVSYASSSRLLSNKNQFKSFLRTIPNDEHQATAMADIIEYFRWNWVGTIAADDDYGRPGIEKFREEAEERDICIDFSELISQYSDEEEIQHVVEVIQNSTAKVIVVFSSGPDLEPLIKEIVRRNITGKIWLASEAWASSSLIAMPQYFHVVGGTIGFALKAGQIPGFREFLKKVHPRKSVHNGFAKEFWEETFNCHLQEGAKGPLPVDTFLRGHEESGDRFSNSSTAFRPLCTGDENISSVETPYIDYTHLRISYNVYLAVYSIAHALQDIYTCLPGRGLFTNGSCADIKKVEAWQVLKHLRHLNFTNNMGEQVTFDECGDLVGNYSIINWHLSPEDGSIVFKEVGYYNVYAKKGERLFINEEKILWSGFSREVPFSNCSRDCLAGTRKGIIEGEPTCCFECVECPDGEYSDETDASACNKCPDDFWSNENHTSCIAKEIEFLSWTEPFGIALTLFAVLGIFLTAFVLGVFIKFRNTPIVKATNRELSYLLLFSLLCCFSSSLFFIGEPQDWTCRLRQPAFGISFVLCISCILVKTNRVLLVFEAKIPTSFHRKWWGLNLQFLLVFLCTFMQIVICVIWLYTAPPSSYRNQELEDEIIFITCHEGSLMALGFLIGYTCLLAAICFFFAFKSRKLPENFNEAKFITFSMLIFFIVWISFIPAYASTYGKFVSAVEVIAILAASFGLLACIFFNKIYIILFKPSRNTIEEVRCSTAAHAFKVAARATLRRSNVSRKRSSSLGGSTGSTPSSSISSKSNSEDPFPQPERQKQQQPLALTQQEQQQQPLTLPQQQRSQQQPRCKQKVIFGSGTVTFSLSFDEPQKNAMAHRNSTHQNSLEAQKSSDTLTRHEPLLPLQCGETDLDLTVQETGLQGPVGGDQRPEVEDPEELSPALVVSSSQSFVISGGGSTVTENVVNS
The experiment is described as follows: Calcium receptor-activating effect, Ca ion concentration-dependent Cl ionic current in Xenopus laevis oocyte expression system. It is filed as cell-based. To be noted: for Activity (lowest concentration at which current is detected): peptide added at 1,000 to 0.1 μM, Ca ion concentration-dependent Cl response current, oocytes voltage-clamped at −70 mV. As to the method:
For evaluation of the calcium receptor-activating effect, Ca ion concentration-dependent Cl ionic current measuring method using a Xenopus laevis oocyte expression system was used. If activator is added to Xenopus laevis oocytes in which the calcium receptor is expressed, intracellular Ca ions increase. Then, the Ca ion concentration-dependent Cl channel opens, and the intracellular current value changes as an ionic current. By measuring the change in the intracellular current value, whether the calcium receptor-activating effect is present or not can be determined.
Specifically, the abdomen of Xenopus laevis was opened, and an egg batch was taken out and then treated with a 1% collagenase solution at 20° C. for 2 hours to obtain individual oocytes. Into each oocyte, 50 nl of 1 μg/μl receptor cRNA or 50 nl of sterilized water per oocyte were injected by using a micro glass capillary, and the oocytes were cultured at 18° C. for 2 to 3 days. For the culture, a solution obtained by adding 2 mM of pyruvic acid, 10 U/ml of penicillin and 10 μg/ml of streptomycin to the solution in Reference Example 2 was used. After the culture, a test solution was added to the oocytes injected with cRNA or sterilized water. Electrophysiological measurement was performed by using an amplifier Geneclamp 500 (manufactured by Axon) and recording software AxoScope 9.0 (manufactured by Axon). The oocytes were voltage-clamped at −70 mV by the double electrode voltage clamp method, and the intracellular current via the Ca ion concentration-dependent Cl ion was measured. The maximum value of the intracellular currents was defined as the response current value.
The ability of L-amino acids to activate the calcium receptor was evaluated by using the method described in Reference Example 6. That is, oocytes injected with cRNA of the calcium receptor or sterilized water were prepared, and voltage-clamped at −70 mV by the double electrode voltage clamp method. To the voltage-clamped oocytes, alanine (10 mM), arginine (10 mM), asparagine (10 mM), aspartic acid (10 mM), cysteine (10 mM), glutamine (10 mM), glutamic acid (10 mM), glycine (10 mM), histidine (10 mM), isoleucine (10 mM), leucine (10 mM), lysine (10 mM), methionine (10 mM), phenylalanine (10 mM), proline (10 mM), serine (10 mM), threonine (10 mM), tryptophan (10 mM), tyrosine (10 mM), valine (10 mM), ornithine (10 mM), taurine (10 mM) or hydroxyproline (10 mM) was added, and Ca ion concentration-dependent Cl response current was measured. […] 25, 2000, 97(9): 4814-9.
The effect of D-cysteine for activating a calcium receptor was evaluated by using the method described in Reference Example 6. That is, oocytes injected with cRNA of the calcium receptor or sterilized water were prepared, and voltage-clamped at −70 mV by the double electrode voltage clamp method. To the voltage-clamped oocytes, D-cysteine (10 mM), L-cysteine (10 mM), D-tryptophan (10 mM) or L-tryptophan (10 mM) was added, and Ca ion concentration-dependent Cl response current was measured.
The effect of peptide for activating calcium receptor was evaluated by using the method described in Reference Example 6. That is, oocytes injected with cRNA of the calcium receptor or sterilized water were prepared, and voltage-clamped at −70 mV by the double electrode voltage clamp method. To the voltage-clamped oocytes, γ-Glu-Cys-Gly (50 μM), γ-Glu-Cys(SNO)-Gly (50 μM), γ-Glu-Ala (50 μM), γ-Glu-Gly (500 μM), γ-Glu-Cys (50 μM), γ-Glu-Met (500 μM), γ-Glu-Thr (50 μM), γ-Glu-Val (50 μM), γ-Glu-Orn (500 μM), Asp-Gly (1 mM), Cys-Gly (1 mM), Cys-Met (1 mM), Glu-Cys (50 μM), Gly-Cys (500 μM) or Leu-Asp (1 mM) was added, and Ca ion concentration-dependent Cl response current was measured.
The ability of a peptide to activate calcium receptor was evaluated in the same manner as that of Reference Example 10.

As for `N[C@@H](CCC(=O)N[C@@H](CS)C(=O)NCC(=O)O)C(=O)O` [γ-Glu-Cys-Gly, reference compound], the “effect for activating calcium receptor (Cl response current)” value (peptide added at 50 μM) was “definite effect for activating calcium receptor”.
Turning to [γGlu]-Val-Gly, the “Activity (lowest concentration at which current is detected)” value came out at 0.1 µM.
On the same count and under the same terms, the figure for [γGlu]-[Abu]-Gly is 3 µM.
